Experimental data taken from ChEMBL document CHEMBL3046363, “Synthesis, fungicidal, and insecticidal activities of beta-Methoxyacrylate-containing N-acetyl pyrazoline derivatives” (J Agric Food Chem, 2008).
In brackets after ≈: the same amount, converted by molar mass. Activity calls are given as the source filed them. The rule behind the calls is not given here.

What was measured:
[1] = test system: Pseudoperonospora cubensis; assay: In vivo fungicidal activity against Pseudoperonospora cubensis infected in cucumber plants assessed as inhibition of disease symptoms at 200 ug/ml treated one day prior to fungal spore inoculation measured after one week; format: functional
[2] = test system: Rhizoctonia solani; assay: In vivo fungicidal activity against Rhizoctonia solani infected in cucumber plants assessed as inhibition of disease symptoms at 200 ug/ml treated one day prior to fungal spore inoculation measured after one week; format: functional, organism-based
[3] = test system: Botrytis cinerea; assay: In vivo fungicidal activity against Botryotinia fuckeliana infected in cucumber plants assessed as inhibition of disease symptoms at 200 ug/ml treated one day prior to fungal spore inoculation measured after one week; format: functional, organism-based
[4] = test system: Podosphaera fuliginea; assay: In vivo fungicidal activity against Podosphaera fuliginea infected cucumber plants assessed as inhibition of disease symptoms at 200 ug/ml treated one day prior to fungal spore inoculation measured after one week; format: functional
[5] = test system: Nilaparvata lugens; assay: In vivo insecticidal activity against fifth instar larval stage of Nilaparvata lugens (brown planthopper) in […] rice seedlings assessed as mortality at 1 g/l treated for 5 secs before larval infestation measured after 72 hr; format: functional, organism-based
[6] = test system: Aphis medicaginis; assay: In vivo insecticidal activity against Aphis medicaginis assessed as mortality at 1 g/l after 72 hr; format: functional, organism-based
[7] = test system: Mythimna separata; assay: In vivo insecticidal activity against Mythimna separata (Oriental armyworm) assessed as mortality at 500 ug/ml after 72 hr; format: functional
[8] = test system: Tetranychus cinnabarinus; assay: In vivo insecticidal activity against Tetranychus cinnabarinus (carmine spider mite) assessed as mortality at 500 ug/ml after 72 hr; format: functional
[9] = test system: Podosphaera fuliginea; assay: In vivo fungicidal activity against Podosphaera fuliginea infected cucumber plants assessed as inhibition of disease symptoms treated one day prior to fungal spore inoculation measured after one week; format: functional, organism-based
[10] = test system: Mythimna separata; assay: In vivo insecticidal activity against Mythimna separata (Oriental armyworm) assessed as mortality after 72 hr; format: functional
[11] = test system: Pseudoperonospora cubensis; assay: In vivo fungicidal activity against Pseudoperonospora cubensis infected in cucumber plants assessed as inhibition of disease symptoms treated one day prior to fungal spore inoculation measured after one week; format: functional, organism-based

| SMILES | inhibition in vivo at 200 µg/mL [1] [%] | inhibition [2] | inhibition [3] | inhibition in vivo at 200 µg/mL [4] [%] | mortality [5] | mortality [6] | mortality at 500 µg/mL [7] [%] | mortality at 500 µg/mL [8] [%] | IC50 [9] [mg/L] | LC50 [10] [mg/L] | IC50 [11] [mg/L] |
| --- | --- | --- | --- | --- | --- | --- | --- | --- | --- | --- | --- |
| CO/C=C(/C(=O)OC)c1ccccc1COc1ccc(C2=NN(C(C)=O)C(c3ccc(F)cc3)C2)cc1 (stereo not drawn) | < 60 | inactive | inactive | < 60 |  |  |  |  |  |  |  |
| CO/C=C(/C(=O)OC)c1ccccc1COc1ccc(C2=NN(C(C)=O)C(c3cccc(OC)c3)C2)cc1 (stereo not drawn) | ≥ 70 | inactive | inactive | < 60 |  |  |  |  |  |  |  |
| CO/C=C(/C(=O)OC)c1ccccc1COc1ccc(C2=NN(C(C)=O)C(c3ccc(Cl)cc3)C2)cc1 (stereo not drawn) | 100 | inactive | inactive | < 60 |  |  |  |  |  |  |  |
| CO/C=C(/C(=O)OC)c1ccccc1COc1ccccc1C1=NN(C(C)=O)C(c2ccc(Cl)cc2)C1 (stereo not drawn) | < 60 | inactive | inactive | < 60 |  |  |  |  |  |  |  |
| CO/C=C(/C(=O)OC)c1ccccc1COc1ccc(C2=NN(C(C)=O)C(c3ccc(Br)cc3)C2)cc1 (stereo not drawn) | < 60 | inactive | inactive | < 60 |  |  |  |  |  |  |  |
| CO/C=C(/C(=O)OC)c1ccccc1COc1ccc(C2=NN(C(C)=O)C(c3cccs3)C2)cc1 (stereo not drawn) | ≥ 70 | inactive | inactive | ≥ 60 |  |  |  |  |  |  |  |
| CO/C=C(/C(=O)OC)c1ccccc1COc1cccc(C2=NN(C(C)=O)C(c3ccccc3Br)C2)c1 (stereo not drawn) | 100 | inactive | inactive | < 60 |  |  |  |  |  |  |  |
| CO/C=C(/C(=O)OC)c1ccccc1COc1ccc(C2=NN(C(C)=O)C(c3ccc(OC)cc3)C2)cc1 (stereo not drawn) | < 60 | inactive | inactive | < 60 |  |  |  |  |  |  |  |
| CO/C=C(/C(=O)OC)c1ccccc1COc1cccc(C2=NN(C(C)=O)C(c3ccc(Cl)cc3)C2)c1 (stereo not drawn) | ≥ 60 | inactive | inactive | < 60 | inactive | inactive | 100 | < 60 |  |  |  |
| CO/C=C(/C(=O)OC)c1ccccc1COc1cccc(C2=NN(C(C)=O)C(c3cccc(F)c3)C2)c1 (stereo not drawn) | < 60 | inactive | inactive | < 60 |  |  |  |  |  |  |  |
| CO/C=C(/C(=O)OC)c1ccccc1COc1cccc(C2=NN(C(C)=O)C(c3ccc(C(C)(C)C)cc3)C2)c1 (stereo not drawn) | ≥ 80 | inactive | inactive | < 60 | inactive | inactive | 100 | ≥ 90 |  |  |  |
| CO/C=C(/C(=O)OC)c1ccccc1COc1ccc(C2=NN(C(C)=O)C(c3cc(OC)c(OC)c(OC)c3)C2)cc1 (stereo not drawn) | < 60 | inactive | inactive | < 60 |  |  |  |  |  |  |  |
| CO/C=C(/C(=O)OC)c1ccccc1COc1cccc(C2=NN(C(C)=O)C(c3ccccc3F)C2)c1 (stereo not drawn) | ≥ 90 | inactive | inactive | < 60 |  |  |  |  |  |  |  |
| CO/C=C(/C(=O)OC)c1ccccc1COc1ccc(C2=NN(C(C)=O)C(c3ccc4c(c3)OCO4)C2)cc1 (stereo not drawn) | 100 | inactive | inactive | < 60 |  |  |  |  |  |  |  |
| CO/C=C(/C(=O)OC)c1ccccc1COc1ccccc1C1=NN(C(C)=O)C(c2cccc(OC)c2)C1 (stereo not drawn) | < 60 | inactive | inactive | < 60 |  |  |  |  |  |  |  |
| CCc1ccc(C2CC(c3ccc(OCc4ccccc4/C(=C\OC)C(=O)OC)cc3)=NN2C(C)=O)cc1 (stereo not drawn) | 100 | inactive | inactive | < 60 |  |  |  |  |  |  |  |
| CO/C=C(/C(=O)OC)c1ccccc1COc1ccc(C2=NN(C(C)=O)C(c3ccccc3F)C2)cc1 (stereo not drawn) | < 60 | inactive | inactive | < 60 |  |  |  |  |  |  |  |
| CO/C=C(/C(=O)OC)c1ccccc1COc1cccc(C2=NN(C(C)=O)C(c3ccc4c(c3)OCO4)C2)c1 (stereo not drawn) | 100 | inactive | inactive | ≥ 90 | inactive | inactive | 100 | < 60 | 57.6 (≈ 109 µM) | 26.6 (≈ 50.3 µM) | 26.6 (≈ 50.3 µM) |

| SMILES | inhibition in vivo at 200 µg/mL [1] [%] | inhibition [2] | inhibition [3] | inhibition in vivo at 200 µg/mL [4] [%] | mortality [5] | mortality [6] | mortality at 500 µg/mL [7] [%] | mortality at 500 µg/mL [8] [%] | IC50 [9] [mg/L] | LC50 [10] [mg/L] | IC50 [11] [mg/L] |
| --- | --- | --- | --- | --- | --- | --- | --- | --- | --- | --- | --- |
| CO/C=C(/C(=O)OC)c1ccccc1COc1cccc(C2=NN(C(C)=O)C(c3cccs3)C2)c1 (stereo not drawn) | 100 | inactive | inactive | < 60 |  |  |  |  |  |  |  |
| CO/C=C(/C(=O)OC)c1ccccc1COc1ccccc1C1=NN(C(C)=O)C(c2ccc(Cl)c(Cl)c2)C1 (stereo not drawn) | < 60 | inactive | inactive | < 60 |  |  |  |  |  |  |  |
| CCOc1ccc(C2CC(c3ccc(OCc4ccccc4/C(=C\OC)C(=O)OC)cc3)=NN2C(C)=O)cc1 (stereo not drawn) | < 60 | inactive | inactive | < 60 |  |  |  |  |  |  |  |
| CCc1ccc(C2CC(c3ccccc3OCc3ccccc3/C(=C\OC)C(=O)OC)=NN2C(C)=O)cc1 (stereo not drawn) | 100 | inactive | inactive | < 60 | inactive | inactive | 100 | < 60 |  |  |  |
| CO/C=C(/C(=O)OC)c1ccccc1COc1ccc(C2=NN(C(C)=O)C(c3ccc(Cl)cc3Cl)C2)cc1 (stereo not drawn) | < 60 | inactive | inactive | < 60 |  |  |  |  |  |  |  |
| CO/C=C(/C(=O)OC)c1ccccc1COc1ccccc1C1=NN(C(C)=O)C(c2ccc(Br)cc2)C1 (stereo not drawn) | < 60 | inactive | inactive | < 60 |  |  |  |  |  |  |  |
| CO/N=C(/C(=O)OC)c1ccccc1COc1ccccc1C [KRESOXIM-METHYL] | ≥ 90 |  |  | 100 |  |  |  |  | 1.6 (≈ 5.11 µM) |  | 24.1 (≈ 76.9 µM) |
| CCOCn1c(-c2ccc(Cl)cc2)c(C#N)c(Br)c1C(F)(F)F [CHLORFENAPYR] |  |  |  |  |  |  | 100 |  |  | 18.5 (≈ 45.4 µM) |  |
| CO/C=C(/C(=O)OC)c1ccccc1COc1ccc(C2=NN(C(C)=O)C(c3ccc(C(C)(C)C)cc3)C2)cc1 (stereo not drawn) | < 60 | inactive | inactive | < 60 |  |  |  |  |  |  |  |
| CO/C=C(/C(=O)OC)c1ccccc1COc1ccc(C2=NN(C(C)=O)C(c3ccc(C)cc3)C2)cc1 (stereo not drawn) | < 60 | inactive | inactive | < 60 |  |  |  |  |  |  |  |
| CO/C=C(/C(=O)OC)c1ccccc1COc1cccc(C2=NN(C(C)=O)C(c3cc(OC)c(OC)c(OC)c3)C2)c1 (stereo not drawn) | < 60 | inactive | inactive | < 60 |  |  |  |  |  |  |  |
| CO/C=C(/C(=O)OC)c1ccccc1COc1ccccc1C1=NN(C(C)=O)C(c2ccc(C)c(C)c2)C1 (stereo not drawn) | < 60 | inactive | inactive | < 60 |  |  |  |  |  |  |  |
| CO/C=C(/C(=O)OC)c1ccccc1COc1cccc(C2=NN(C(C)=O)C(c3ccc(C)cc3)C2)c1 (stereo not drawn) | 100 | inactive | inactive | < 60 |  |  | ≥ 90 | < 60 |  |  |  |
| CO/C=C(/C(=O)OC)c1ccccc1COc1ccccc1C1=NN(C(C)=O)C(c2ccc(OC)c(OC)c2)C1 (stereo not drawn) | < 60 | inactive | inactive | < 60 |  |  |  |  |  |  |  |
| CO/C=C(/C(=O)OC)c1ccccc1COc1ccc(C2=NN(C(C)=O)C(c3cccc(F)c3)C2)cc1 (stereo not drawn) | < 60 | inactive | inactive | < 60 |  |  |  |  |  |  |  |
| CCOc1ccc(C2CC(c3cccc(OCc4ccccc4/C(=C\OC)C(=O)OC)c3)=NN2C(C)=O)cc1 (stereo not drawn) | 100 | inactive | inactive | < 60 |  |  |  |  |  |  |  |
| CO/C=C(/C(=O)OC)c1ccccc1COc1cccc(C2=NN(C(C)=O)C(c3ccccc3OC)C2)c1 (stereo not drawn) | ≥ 80 | inactive | inactive | ≥ 80 |  |  |  |  |  |  |  |
| CO/C=C(/C(=O)OC)c1ccccc1COc1ccc(C2=NN(C(C)=O)C(c3ccc(C)c(C)c3)C2)cc1 (stereo not drawn) | < 60 | inactive | inactive | < 60 |  |  |  |  |  |  |  |
